Laboratory results reported in ChEMBL document CHEMBL4715696, “In vitro synergistic anticancer activity of the combination of T-type calcium channel blocker and chemotherapeutic agent in A549 cells” (Bioorg Med Chem Lett, 2016).

Key:
A549 [1] = assay: Decrease in cell cycle associated protein expression in human A549 cells assessed as fold change in CDK6 expression at 10 uM after 24 hrs by Western blot analysis (reference value: 0.7); type: functional
A549 [2] = assay: Decrease in cell cycle associated protein expression in human A549 cells assessed as fold change in CDK2 expression at 5 uM after 48 hrs by Western blot analysis (reference value: 0.48); type: functional
A549 [3] = assay: Potentiation of etoposide-induced cell cycle arrest in human A549 cells assessed as accumulation at sub G1 phase at 5 uM in presence of etoposide after 48 hrs by flow cytometric analysis (Rvb =33 %); type: functional
A549 [4] = assay: Decrease in cell cycle associated protein expression in human A549 cells assessed as fold change in CDK6 expression at 2.5 uM after 48 hrs by Western blot analysis (reference value: 1.05); type: functional
A549 [5] = assay: Decrease in cell cycle associated protein expression in human A549 cells assessed as reduction in CDK6 expression after 48 hrs by Western blot analysis; type: functional, cell-based; settings: dose 2.5-10 µM
A549 [6] = assay: Decrease in cell cycle associated protein expression in human A549 cells assessed as fold change in CDK2 expression at 10 uM after 24 hrs by Western blot analysis (reference value: 0.79); type: functional
A549 [7] = assay: Decrease in cell cycle associated protein expression in human A549 cells assessed as fold change in cyclin E expression at 10 uM after 36 hrs by Western blot analysis (reference value: 0.55); type: functional
[8] = Upregulation of p27KIP1 protein expression in human A549 cells assessed as fold change in expression at 2.5 uM after 48 hrs by Western blot analysis (reference value: 0.48); type: functional
A549 [9] = assay: Decrease in cell cycle associated protein expression in human A549 cells assessed as fold change in cyclin E expression at 10 uM after 24 hrs by Western blot analysis (reference value: 0.55); type: functional
A549 [10] = assay: Decrease in cell cycle associated protein expression in human A549 cells assessed as fold change in cyclin D2 expression at 2.5 uM after 48 hrs by Western blot analysis (reference value: 0.46); type: functional
A549 [11] = assay: Induction of cell cycle arrest in human A549 cells assessed as accumulation at sub G1 phase at 2.5 uM after 48 hrs by flow cytometric analysis (Rvb =1.9 %); type: functional
A549 [12] = assay: Decrease in cell cycle associated protein expression in human A549 cells assessed as reduction in cyclin D2 expression at 10 uM by Western blot analysis; type: functional, cell-based; settings: time 6-48 hrs, TDE = time-dependent effect
A549 [13] = assay: Decrease in cell cycle associated protein expression in human A549 cells assessed as fold change in cyclin D3 expression at 5 uM after 48 hrs by Western blot analysis (reference value: 0.73); type: functional
A549 [14] = assay: Upregulation of p27KIP1 protein expression in human A549 cells at 10 uM by Western blot analysis; type: functional, cell-based; settings: time 6-48 hrs, TDE = time-dependent effect
A549 [15] = assay: Decrease in cell cycle associated protein expression in human A549 cells assessed as fold change in cyclin D1 expression at 10 uM after 6 hrs by Western blot analysis (reference value: 0.68); type: functional
A549 [16] = assay: Decrease in cell cycle associated protein expression in human A549 cells assessed as reduction in cyclin D2 expression after 48 hrs by Western blot analysis; type: functional, cell-based; settings: dose 2.5-10 µM
[17] = Permeability of the compound by PAMPA assay; type: ADME; settings: read-out: permeability
A549 [18] = assay: Induction of cell cycle arrest in human A549 cells assessed as accumulation at G2/M phase at 2.5 uM after 48 hrs by flow cytometric analysis (Rvb =22.1%); type: functional
A549 [19] = assay: Induction of cell cycle arrest in human A549 cells assessed as accumulation at G1 phase at 5 uM after 48 hrs by flow cytometric analysis (reference value: 57.8 to 65.5%); type: functional
A549 [20] = assay: Potentiation of etoposide-induced cell cycle arrest in human A549 cells assessed as accumulation at S phase at 2.5 uM in presence of etoposide after 48 hrs by flow cytometric analysis (Rvb =12.3%); type: functional
[21] = Metabolic stability in human plasma assessed as parent compound remaining at 10 uM measured after 1 hr; type: ADME, cell-free; settings: read-out: Stabilty
A549 [22] = assay: Potentiation of etoposide-induced cell cycle arrest in human A549 cells assessed as accumulation at G2/M phase at 5 uM in presence of etoposide after 48 hrs by flow cytometric analysis (Rvb =18.9%); type: functional
A549 [23] = assay: Decrease in cell cycle associated protein expression in human A549 cells assessed as fold change in CDK4 expression at 10 uM after 6 hrs by Western blot analysis (reference value: 0.87); type: functional
A549 [24] = assay: Decrease in cell cycle associated protein expression in human A549 cells assessed as fold change in cyclin E expression at 2.5 uM after 48 hrs by Western blot analysis (reference value: 0.37); type: functional
A549 [25] = assay: Decrease in cell cycle associated protein expression in human A549 cells assessed as fold change in cyclin E expression at 5 uM after 48 hrs by Western blot analysis (reference value: 0.37); type: functional
A549 [26] = assay: Decrease in cell cycle associated protein expression in human A549 cells assessed as fold change in CDK2 expression at 2.5 uM after 48 hrs by Western blot analysis (reference value: 0.48); type: functional
A549 [27] = assay: Induction of apoptosis in human A549 cells assessed as early apoptotic cells at 10 uM incubated for 48 hrs by AnnexinV-FITC/propidium iodide staining based flow cytometry (reference value: 1.2%); type: functional
[28] = Increase in recruitment of […] p27KIP1 to CDK6 in human A549 cells assessed as fold change at 10 uM incubated for 12 hrs by immunoprecipitation/immunoblot analysis (reference value: 0.56); type: functional
[29] = Increase in recruitment of […] p27KIP1 to CDK2 in human A549 cells assessed as fold change at 10 uM incubated for 12 hrs by immunoprecipitation/immunoblot analysis (reference value: 0.43); type: functional
A549 [30] = assay: Potentiation of cisplatin-induced cell cycle arrest in human A549 cells assessed as accumulation at S phase at 10 uM in presence of cisplatin after 48 hrs by flow cytometric analysis (Rvb =15.8%); type: functional
A549 [31] = assay: Induction of cell cycle arrest in human A549 cells assessed as accumulation at G1 phase at 2.5 uM after 48 hrs by flow cytometric analysis (Rvb =65.5%); type: functional
A549 [32] = assay: Potentiation of etoposide-induced cell cycle arrest in human A549 cells assessed as accumulation at G2/M phase at 10 uM in presence of etoposide after 48 hrs by flow cytometric analysis (Rvb =18.9%); type: functional
A549 [33] = assay: Decrease in cell cycle associated protein expression in human A549 cells assessed as fold change in CDK4 expression at 5 uM after 48 hrs by Western blot analysis (reference value: 0.62); type: functional
A549 [34] = assay: Potentiation of cisplatin-induced cell cycle arrest in human A549 cells assessed as accumulation at G2/M phase at 2.5 uM in presence of cisplatin after 48 hrs by flow cytometric analysis (Rvb =52.9%); type: functional
[35] = Metabolic stability in human liver microsomes assessed as parent compound remaining at 1 uM measured for 30 mins; type: ADME, Microsome; settings: read-out: Stabilty
A549 [36] = assay: Cytotoxicity against human A549 cells assessed as reduction in cell viability by MTT assay; type: functional, cell-based

CN(C)C(=O)NCCCN(C)C1=Nc2ccccc2C(CC(=O)NCc2ccc(F)cc2)N1c1ccc(C2CCCCC2)cc1 (stereo unspecified)
fold change (FC) (A549 [1]): 0.47
fold change (FC) (A549 [2]): 0.46
Activity (A549 [3]): 43.4%
fold change (FC) (A549 [4]): 0.59
Activity (A549 [5]): Dose-dependent effect
fold change (FC) (A549 [6]): 0.61
fold change (FC) (A549 [7]): 0.18
fold change (FC) [8]: 0.62
fold change (FC) (A549 [9]): 0.08
fold change (FC) (A549 [10]): 0.61
Activity (A549 [11]): 1.3%
Activity (A549 [12]): Tde
fold change (FC) (A549 [13]): 0.77
Activity (A549 [14]): Tde
fold change (FC) (A549 [15]): 0.47
Activity (A549 [16]): Dose-dependent effect
Papp [17]: < 1.5 ×10⁻⁶ cm/s
Activity (A549 [18]): 19.4%
Activity (A549 [19]): 67.7%
Activity (A549 [20]): 10.7%
remaining at 1 h, 10 µM [21]: 85.1%
Activity (A549 [22]): 13.4%
fold change (FC) (A549 [23]): 0.88
fold change (FC) (A549 [24]): 0.44
fold change (FC) (A549 [25]): 0.49
fold change (FC) (A549 [26]): 0.47
Activity (A549 [27]): 8.8%
fold change (FC) [28]: 0.68
fold change (FC) [29]: 0.6
Activity (A549 [30]): 6.1%
Activity (A549 [31]): 69.3%
Activity (A549 [32]): 3.2%
fold change (FC) (A549 [33]): 0.64
Activity (A549 [34]): 43%
remaining at 0.5 h, 1 µM [35]: 71.2%
IC50 (A549 [36]): 7.3 µM
